Key:
testicular cancer = details: cited from earlier work
[1] = test system: deoxyguanosine monophosphate (dGMP); test: Nucleotide binding experiment by 1H NMR, dGMP; details: molar ratio 1:3.5, 37 °C, 66 h, DMF-d7/D2O, compared to cisplatin
Description: (§1) Formation of DNA cross-links is the crucial part of the platinum cytotoxicity mechanism. To study diaplatin complex 1 activity on nucleotides in comparison to cisplatin we chose guanosine monophosphate (GMP) and deoxyguanosine monophosphate (dGMP) as substrates (Fig 6). The reaction between platinum complexes and GMP or dGMP causes substitution of their leaving group ligands with nucleotide forming monoadducts that quickly lose a second leaving ligand forming bisadducts. The N7 atom of the purine fragment is known to be the preferred site of attachment to platinum, thus causing easily observable downfield NMR shifts of the adjacent H8 atom. The collected ^1H NMR data during incubation of the reaction mixtures provide time-dependent changes of the H8 atom integral, thereby providing insights into the binding rates between the studied complexes (Fig 7).
(§2) A platinum complex solution in DMF-d7 (0.27 mL, 6.9 mM) was reacted with GMP or dGMP in a molar ratio 1:3.5 introduced with a NaClO4 solution in D2O (0.33 mL, 100 mM). The reaction mixture was immediately transferred into an NMR tube and ^1H NMR data were collected every hour for 66 h at 37 °C. The pH was measured immediately after the reaction mixture was prepared and at the end of the reaction at rt.

A2780cis = test: Cellular viability assay (resazurin / Alamar Blue, 72 h), cisplatin-resistant variant; details: 72 h at 37 °C, compared to cisplatin, result in words
[2] = test system: human ovarian cancer cell line A2780; test: Cellular viability assay (resazurin / Alamar Blue, 72 h); details: A2780, 72 h at 37 °C, compared to cisplatin; result in words
[3] = test system: guanosine monophosphate (GMP); test: Nucleotide binding experiment by 1H NMR, GMP; details: molar ratio 1:3.5, 37 °C, 66 h, DMF-d7/D2O, compared to cisplatin
Description: as §1, §2

[4] = Solubility of the complexes in solvents
[5] = compared to cisplatin; cited from earlier work

N.N.[Cl][Pt][Cl] [Cisplatin, cis-dichlorodiamineplatinum(II)]
cure rate (testicular cancer): 90%

cis-[1,2-diaminodiamantane]dichlorideplatinum(II) [(S,S)-1]
rate of bisadduct formation [1]: faster than for (R,R)-1 and cisplatin
cytotoxicity (A2780cis): lowest efficacy
cytotoxicity [2]: lowest efficacy

cis-[1,2-diaminodiamantane]dichlorideplatinum(II) [(R,R)-1]
rate of bisadduct formation [1]: faster with (R,R)-1 than with cisplatin
rate of bisadduct formation [3]: faster with (R,R)-1 than with cisplatin

cis-[1,2-diaminodiamantane]oxalatoplatinum(II) [(S,S)-2]
solubility ([4]; […]): insoluble

cis-[1,2-diaminodiamantane]dichlorideplatinum(II) [compound 1]
solubility ([4]; in DMF): good solubility
solubility ([4]; in methanol): somewhat soluble

N.N.O=C([O-])C1(C(=O)[O-])CCC1.[Pt+2] [Carboplatin]
increase in concentration to achieve the same effect [5]: 20-40 fold

Reference: patent EP3795574A1, “SYNTHESIS AND USAGE OF 1,2-DIAMINODIAMANTANE PLATINUM(II) COMPLEXES” (Justus-Liebig-Universität Gießen, priority 2019, dated 2021)
